In patent US20050065187A1, “Novel antimicrobial aryloxazolidinone compounds” (priority 2003, published 2005) one finds MIC data, which are given here for five compounds.

Common to all, as to experiment: Antibacterial assay (Test A), microtitration MIC
For assay [1], the system named is SAUR 9213. Format: cell-based, S. aureus. The settings on record: Staphylococcus aureus, read-out: SAUR 9213 MIC. As for the experimental part:
(§1) Test A—Antibacterial Assays
(§2) The compounds of the present invention were tested against an assortment of Gram-negative and Gram-positive organisms using standard microtitration techniques (Cohen et. al., Antimicrob., 1985;28:766; Heifetz, et. al., Antimicrob., 1974;6:124).

The test system of assay [2] is HINF 30063. In kind it is cell-based, H. influenza. The settings on record: Minimum Inhibitory Concentration, strain HINF 30063. As for the experimental part: as §1, §2
In assay [3] the test system is SPNE 9912. Format: cell-based, S. pneumoniae. The settings on record: Streptococcus pneumoniae, read-out: SPNE 9912 MIC. As for the experimental part:
as §1, §2

The test system of assay [4] is MC 30603. In kind it is cell-based, M. catarrhalis. The settings on record: Moraxella catarrhalis, read-out: MC 30603 MIC. As for the experimental part:
as §1, §2

Setting [5] is: Minimum Inhibitory Concentration, strain SAUR 9213.
The mark [6] stands for this setting: Minimum Inhibitory Concentration, strain SPNE 9912.
Where [7] appears, read: Minimum Inhibitory Concentration, strain MC 30603.

Molecules are shown by their SMILES. ≈ marks a conversion by molar mass, not a printed value. Like-named read-outs stand apart in the source and are kept apart here.

Take `CON=C1CCC(c2ccc(N3C[C@H](CNC(C)=O)OC3=O)cc2F)CC1` (some centres unmarked) [Example 22, N-{3-[3-Fluoro-4-(4-methoxyimino-cyclohexyl)-phenyl]-2-oxo-oxazolidin-5-ylmethyl}-acetamide]: the MIC in assay [1] (setting [5]) came out at 2 µg/mL (≈ 5.3 µM); in assay [2] it was 32 µg/mL (≈ 84.8 µM); in assay [3] (setting [6]), 1 µg/mL (≈ 2.65 µM); in assay [4] (setting [7]) it was 1 µg/mL (≈ 2.65 µM).
In the case of `O=C1CCN(c2ccc(N3C[C@H](Cn4ccnn4)OC3=O)cc2F)C[C@@H]1O` [Example 6, 1-[2-Fluoro-4-(2-oxo-5-[1,2,3]triazol-1-ylmethyl-oxazolidin-3-yl)-phenyl]-3-hydroxy-piperidin-4-one], the MIC turned out to be 4 µg/mL (≈ 10.7 µM) in assay [1] (setting [5]), 64 µg/mL (≈ 171 µM) in assay [2], 1 µg/mL (≈ 2.66 µM) in assay [3] (setting [6]) and 8 µg/mL (≈ 21.3 µM) in assay [4] (setting [7]).
For `CC(=O)NC[C@H]1CN(c2ccc([C@@H]3CCC(=O)[C@@H](O)C3)c(F)c2)C(=O)O1` (stereo in doubt) [Example 25, N-{3-[3-Fluoro-4-(3-hydroxy-4-oxo-cyclohexyl)-phenyl]-2-oxo-oxazolidin-5-ylmethyl}-acetamide], the MIC in assay [1] came to 2 µg/mL (≈ 5.49 µM); in assay [2], 16 µg/mL (≈ 43.9 µM); in assay [3], 2 µg/mL (≈ 5.49 µM); in assay [4], 8 µg/mL (≈ 22 µM).
As to `NC(=O)[C@H]1CN(c2ccc(C3CCC(O)CC3)c(F)c2)C(=O)O1` (stereo in doubt) [Example 23, 3-[3-Fluoro-4-(4-hydroxy-cyclohexyl)-phenyl]-2-oxo-oxazolidine-5-carboxylic acid amide], the MIC is 2 µg/mL (≈ 6.2 µM) in assay [1] (setting [5]), 64 µg/mL (≈ 199 µM) in assay [2], 1 µg/mL (≈ 3.1 µM) in assay [3] (setting [6]) and 16 µg/mL (≈ 49.6 µM) in assay [4] (setting [7]).
With `CC(=O)NC[C@H]1CN(c2ccc(N3CC/C(=N/O)[C@@H](O)C3)c(F)c2)C(=O)O1` (stereo in doubt) [Example 3, N-{3-[3-Fluoro-4-(3-hydroxy-4-hydroxyimino-piperidin-1-yl)-phenyl]-2-oxo-oxazolidin-5-ylmethyl}-acetamide], the MIC in assay [1] (setting [5]) turned out to be 8 µg/mL (≈ 21 µM); in assay [2], 16 µg/mL (≈ 42.1 µM); in assay [3] (setting [6]), 2 µg/mL (≈ 5.26 µM); in assay [4] (setting [7]) it was 16 µg/mL (≈ 42.1 µM).
